The values below come from ChEMBL document CHEMBL1201862, “PubChem BioAssay data set” (2004).

What all share (test): inhibition of tumour cell growth, NCI panel, 48 h
Assay [1] concerns 786-0.
For assay [2], the system named is BT-549.
Assay [3] relates to CAKI-1.
Assay [4] concerns CCRF-CEM.
Assay [5] relates to COLO 205.
Assay [6] concerns DU-145.
Assay [7] concerns HT-29.
Assay [8] has as its system IGROV-1.
In assay [9] the test system is MDA-MB-231.
Assay [10] concerns MDA-MB-435.
Assay [11] concerns NCI-H226.
The subject of assay [12] is NCI/ADR-RES.
Assay [13] concerns OVCAR-4.
Assay [14] relates to OVCAR-5.
Assay [15] relates to OVCAR-8.
For assay [16], the system named is SF-295.
The test system of assay [17] is SK-MEL-5.
The test system of assay [18] is T47D.
Assay [19] concerns UACC-257.
Assay [20] relates to UACC-62.

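Protocol summary: plate cells (96-well), add compound at 5 concentrations, incubate 48 h, interpolate endpoints linearly. The concentration for 50% growth inhibition is given as GI50.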 Activity calls are given as the source filed them. Rule as the data show it: active = GI50 up to about 1.1 µM and inactive = higher.

For `Cc1ccc(C(=O)NC2C(=O)NC(C(C)C)C(=O)N3CCCC3C(=O)N(C)CC(=O)N(C)C(C(C)C)C(=O)OC2C)c2c1Oc1c(c(C(=O)NC3C(=O)NC(C(C)C)C(=O)N4CCCC4C(=O)N(C)CC(=O)N(C)C(C(C)C)C(=O)OC3C)c3nc(-c4ccccc4)c(=O)oc3c1C)N2` (stereo not given), the GI50 was < 0.001 µM (active) in assay [1]; < 0.001 µM (active) in assay [2]; 0.00948 µM (active) in [3]; 0.00255 µM (active) in assay [4]; 0.0039 µM (active) in assay [5]; 0.00422 µM (active) in assay [6]. Also, the GI50 in assay [7] is < 0.001 µM (active); in assay [8], < 0.001 µM (active); in assay [9], 0.00762 µM (active); in assay [10], 0.00154 µM (active); in [11], 0.00163 µM (active); in [12], 0.189 µM (active). Further, the GI50 in assay [13] was 0.151 µM (active); in assay [14], 0.00216 µM (active); in [15], < 0.001 µM (active); in assay [16], < 0.001 µM (active); in assay [17], 0.00177 µM (active); in assay [18], 0.00453 µM (active). Also, the results for the GI50 in [19] and in assay [20] were 0.00871 µM (active) and < 0.001 µM (active), respectively.
`COc1cc2oc(=O)cc(C)c2cc1[N+](=O)[O-]`: the GI50 in assay [1] is 17.5 µM (inactive); in assay [2], 16.7 µM (inactive); in assay [3], 13.8 µM (inactive); in [4] it was 17.8 µM (inactive); in [5] it was 23.9 µM (inactive); in [6], 33.1 µM (inactive). The GI50 in assay [7] is 23.1 µM (inactive); in assay [8] it was 38.9 µM (inactive); in [9], 22.4 µM (inactive); in [10], 20.1 µM (inactive); in assay [11], 8.77 µM (inactive); in assay [12] it was 28.4 µM (inactive). Further, the GI50 is 35.1 µM (inactive) in assay [13]; 28.1 µM (inactive) in assay [14]; 18.8 µM (inactive) in assay [15]; 51.4 µM (inactive) in assay [16]; 27.3 µM (inactive) in [17]; 20.7 µM (inactive) in assay [18]. Besides, the values for the GI50 in [19] and in [20] were 16.3 µM (inactive) and 16.1 µM (inactive), respectively.
Take `COc1ccc(-c2oc3ccc(C)cc3c(=O)c2O)cc1`: the GI50 is 44.3 µM (inactive) in assay [1]; > 100 µM (inactive) in assay [2]; > 100 µM (inactive) in assay [3]; > 100 µM (inactive) in assay [4]; > 100 µM (inactive) in [5]; > 100 µM (inactive) in assay [6]. Besides, the GI50 in [7] was > 100 µM (inactive); in assay [8], > 100 µM (inactive); in assay [9], 71.4 µM (inactive); in assay [10], > 100 µM (inactive); in [11] it was > 100 µM (inactive); in assay [12], 35.4 µM (inactive). The GI50 in assay [13] was 57.7 µM (inactive); in assay [14], > 100 µM (inactive); in assay [15], 23.1 µM (inactive); in assay [16] it was > 100 µM (inactive); in [17] it was > 100 µM (inactive); in assay [18] it was > 100 µM (inactive). The GI50 in [19] and in assay [20] was > 100 µM (inactive) throughout.
Turning to `C=C1OC2OC(C)C(NC(=O)OCC(Cl)(Cl)Cl)C(OC(C)=O)C2O1` (stereo not given), the GI50 in assay [1], in [2], in assay [3], in [4], in assay [5] and in [6] was > 100 µM (inactive) throughout. Further, the GI50 is > 100 µM (inactive) in assay [7]; > 100 µM (inactive) in assay [8]; > 100 µM (inactive) in [9]; > 100 µM (inactive) in assay [10]; 43.6 µM (inactive) in [11]; > 100 µM (inactive) in assay [12]. Also, the GI50 in [13], in [14], in assay [15], in assay [16], in assay [17] and in assay [18] was > 100 µM (inactive) in each case. The GI50 in [19] and in assay [20] was > 100 µM (inactive) each time.
Consider `N#Cc1c(Nc2ccccc2)[n+]([O-])c2ccc(Cl)cc2[n+]1[O-]`, for which the GI50 in assay [1] was 5.25 µM (inactive); in assay [2], 3.44 µM (inactive); in [3], 5.09 µM (inactive); in assay [4], 2.92 µM (inactive); in assay [5], 2.33 µM (inactive); in [6], 16.1 µM (inactive). Moreover, the GI50 is 3.05 µM (inactive) in assay [7]; 1.78 µM (inactive) in assay [8]; 9.53 µM (inactive) in assay [9]; 8.99 µM (inactive) in [10]; 4.67 µM (inactive) in assay [11]; 2.7 µM (inactive) in assay [12]. Further, the GI50 was 1.56 µM (inactive) in assay [13]; 15.8 µM (inactive) in assay [14]; 2.77 µM (inactive) in assay [15]; 4.52 µM (inactive) in assay [16]; 2.09 µM (inactive) in assay [17]; 6.65 µM (inactive) in assay [18]. In addition, the results for the GI50 in [19] and in [20] were 7.28 µM (inactive) and 3.71 µM (inactive), respectively.
With `CC1(C)C=C(/C=C2/N(S(=O)(=O)C(F)(F)F)C(/C=C3/N(S(=O)(=O)C(F)(F)F)C(C)(C#N)CC3(C)C)=CC2(C)C)N=C1/C=C1/CC(C)(C)C(=O)N1` (stereo not given), the GI50 in assay [1] is 20.7 µM (inactive); in assay [2], 27.2 µM (inactive); in assay [3], 11.4 µM (inactive); in assay [4], 2.84 µM (inactive); in [5], 14.2 µM (inactive); in assay [6] it was 33.9 µM (inactive). Besides, the GI50 in assay [7] was 16.8 µM (inactive); in [8], 7.24 µM (inactive); in assay [9] it was 23.1 µM (inactive); in assay [10] it was 15 µM (inactive); in [11], 22.7 µM (inactive); in [12], 23.3 µM (inactive). In addition, the GI50 is 7.38 µM (inactive) in assay [13]; 57.5 µM (inactive) in assay [14]; 4.57 µM (inactive) in assay [15]; 14.3 µM (inactive) in [16]; 13.8 µM (inactive) in assay [17]; 6.07 µM (inactive) in assay [18]. Also, the GI50 is 20.6 µM (inactive) in assay [19] and 14.4 µM (inactive) in assay [20].
Turning to `O=C1C=C(O)C(=O)c2c(O)ccc(O)c21`, the GI50 in assay [1] is > 100 µM (inactive); in assay [2] it was > 100 µM (inactive); in assay [3], > 100 µM (inactive); in assay [4], > 100 µM (inactive); in [5], 92 µM (inactive); in assay [6], > 100 µM (inactive). In addition, the GI50 is 51.9 µM (inactive) in [7]; > 100 µM (inactive) in assay [8]; > 100 µM (inactive) in assay [9]; > 100 µM (inactive) in assay [10]; > 100 µM (inactive) in [11]; > 100 µM (inactive) in assay [12]. Moreover, the GI50 in assay [13], in [14], in assay [15], in [16], in assay [17] and in [18] was > 100 µM (inactive) in each case. Also, the GI50 in [19] and in assay [20] was > 100 µM (inactive) each time.
For the molecule `COC(=O)/C=C(/C(=O)OC)c1cc2ccc3c([nH]c4ccccc43)c(C)c-2c1`, the GI50 was 4.78 µM (inactive) in assay [1]; 4.78 µM (inactive) in assay [2]; 6.32 µM (inactive) in [3]; 2.9 µM (inactive) in assay [4]; 1.75 µM (inactive) in [5]; 9.73 µM (inactive) in assay [6]. The GI50 is 2.78 µM (inactive) in [7]; 2.74 µM (inactive) in [8]; 3.8 µM (inactive) in assay [9]; 3.94 µM (inactive) in [10]; 5.98 µM (inactive) in assay [11]; 3.46 µM (inactive) in [12]. For the same molecule, the GI50 in [13] was 4.95 µM (inactive); in assay [14] it was 3.56 µM (inactive); in assay [15] it was 3.03 µM (inactive); in [16], 4.12 µM (inactive); in assay [17] it was 2.88 µM (inactive); in assay [18] it was 3.6 µM (inactive). The GI50 in [19] is 6.95 µM (inactive); in [20], 4.66 µM (inactive).
`CC1=CC(=O)c2c(O)cccc2C1=O` [PLUMBAGIN]: the GI50 in assay [1] was 1.65 µM (inactive); in [2] it was 1.7 µM (inactive); in assay [3] it was 1.83 µM (inactive); in assay [4], 0.208 µM (active); in assay [5], 1.86 µM (inactive); in [6], 1.65 µM (inactive). The GI50 is 1.89 µM (inactive) in assay [7]; 1.78 µM (inactive) in [8]; 1.92 µM (inactive) in [9]; 1.73 µM (inactive) in assay [10]; 6.55 µM (inactive) in [11]; 1.76 µM (inactive) in [12]. In addition, the GI50 in [13] was 1.76 µM (inactive); in [14] it was 1.94 µM (inactive); in assay [15], 1.69 µM (inactive); in [16], 11.5 µM (inactive); in assay [17], 1.62 µM (inactive); in assay [18], 0.434 µM (active). Besides, the GI50 was 1.81 µM (inactive) in assay [19] and 1.94 µM (inactive) in [20].
Consider `C/C(=C\CO)CC[C@@H]1[C@@]2(C)CCCC(C)(C)[C@@H]2CC[C@@]1(C)O`, for which the GI50 in [1] is 20.4 µM (inactive); in assay [2], 18.3 µM (inactive); in [3] it was 28.6 µM (inactive); in assay [4], 20.4 µM (inactive); in [5] it was 17.7 µM (inactive); in [6], 18 µM (inactive). For the same molecule, the GI50 is 21.3 µM (inactive) in [7]; 17 µM (inactive) in assay [8]; 17.3 µM (inactive) in assay [9]; 18.3 µM (inactive) in assay [10]; 18.5 µM (inactive) in assay [11]; 17.1 µM (inactive) in assay [12]. Moreover, the GI50 was 17.3 µM (inactive) in assay [13]; 23.1 µM (inactive) in assay [14]; 16.2 µM (inactive) in assay [15]; 17.6 µM (inactive) in assay [16]; 17.9 µM (inactive) in assay [17]; 18.2 µM (inactive) in [18]. Further, the GI50 is 19.5 µM (inactive) in [19] and 14.1 µM (inactive) in assay [20].
